Measurements taken from BindingDB's records for doi:10.1016/j.chembiol.2016.06.016 (Massachusetts Institute of Technology, 2016).

How the values were obtained:
Cytochrome b [1] = molecular target: T1, Cytochrome b (Candida albicans, UniProt I2BJW5); experiment: Cytochrome b Enzyme Assay; details: pH 7.4; 25 °C
T1 sequence (I2BJW5 whole entry): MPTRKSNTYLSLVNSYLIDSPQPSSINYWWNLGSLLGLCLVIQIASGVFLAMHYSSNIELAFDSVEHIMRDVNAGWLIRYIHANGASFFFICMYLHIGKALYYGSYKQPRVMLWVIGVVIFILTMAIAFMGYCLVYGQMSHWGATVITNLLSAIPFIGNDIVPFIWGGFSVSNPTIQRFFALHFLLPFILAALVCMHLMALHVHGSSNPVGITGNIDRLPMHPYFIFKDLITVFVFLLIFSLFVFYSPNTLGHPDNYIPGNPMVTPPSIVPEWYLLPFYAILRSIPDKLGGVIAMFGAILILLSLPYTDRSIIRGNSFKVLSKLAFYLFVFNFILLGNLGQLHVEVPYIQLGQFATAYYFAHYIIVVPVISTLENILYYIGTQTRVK
Method: (§1) Reaction plates were incubated at room temperature for 10 min before reading absorbance at 550 nm. Absolute IC50 values were calculated in GraphPad Prism 6.0.

Cytochrome b [2] = molecular target: Cytochrome b (Homo sapiens, UniProt P00156); experiment: Cytochrome b Enzyme Assay; details: pH 7.4; 25 °C
Method: as §1

Cytochrome b (Homo sapiens, UniProt P00156), sequence (P00156 whole entry): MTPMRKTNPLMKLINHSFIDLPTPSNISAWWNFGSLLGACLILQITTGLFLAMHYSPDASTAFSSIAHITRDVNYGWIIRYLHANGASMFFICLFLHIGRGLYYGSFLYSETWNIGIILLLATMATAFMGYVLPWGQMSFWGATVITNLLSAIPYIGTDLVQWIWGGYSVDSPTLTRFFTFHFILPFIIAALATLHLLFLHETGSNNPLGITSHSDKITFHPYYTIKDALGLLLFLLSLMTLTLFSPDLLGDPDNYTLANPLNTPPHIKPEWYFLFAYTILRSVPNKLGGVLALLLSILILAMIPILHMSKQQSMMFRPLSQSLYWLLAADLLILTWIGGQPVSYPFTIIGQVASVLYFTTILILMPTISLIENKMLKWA

Row | Structure (SMILES) | IC50 (Cytochrome b [1]) | IC50 (Cytochrome b [2])
1 | COC(=O)Cn1nc(-c2ccccc2)c2ccccc21 [Inz-1] | 8.09 µM | 45.3 µM
2 | COC(=O)Cn1nc(-c2cc(C(F)(F)F)ccc2F)c2cccc(C)c21 [Inz-4] | 0.026 µM | 1.04 µM
3 | COC(=O)Cn1nc(-c2cccnc2)c2ccccc21 [Inz-14] | > 64 µM | > 64 µM
4 | COC(=O)Cn1nc(-c2ccccc2C#N)c2ccccc21 [Inz-20] | > 64 µM | > 64 µM
5 | COC(=O)Cn1nc(-c2cc(C(F)(F)F)ccc2F)c2cc(C(F)(F)F)ccc21 [Inz-21] | > 64 µM | > 64 µM
6 | O=C(O)Cn1nc(-c2ccccc2)c2ccccc21 [Inz-24] | > 64 µM | > 64 µM
7 | CNC(=O)Cn1nc(-c2ccccc2)c2ccccc21 [Inz-25] | > 64 µM | > 64 µM
8 | CON(C)C(=O)Cn1nc(-c2ccccc2)c2ccccc21 [Inz-26] | > 64 µM | > 64 µM
9 | CS(=O)(=O)Cn1nc(-c2ccccc2)c2ccccc21 [Inz-27] | > 64 µM | > 64 µM
10 | FC(F)(F)Cn1nc(-c2ccccc2)c2ccccc21 [Inz-28] | > 64 µM | > 64 µM
11 | c1ccc(-c2nn(Cc3cncs3)c3ccccc23)cc1 [Inz-29] | > 64 µM | > 64 µM
12 | c1ccc(-c2nn(Cc3nccs3)c3ccccc23)cc1 [Inz-30] | > 64 µM | > 64 µM
13 | Cc1cc(Cn2nc(-c3ccccc3)c3ccccc32)on1 [Inz-31] | > 64 µM | > 64 µM
14 | Cc1nnc(Cn2nc(-c3ccccc3)c3ccccc32)o1 [Inz-32] | > 64 µM | > 64 µM
15 | c1ccc(-c2nn(Cc3nn[nH]n3)c3ccccc23)cc1 [Inz-33] | > 64 µM | > 64 µM
16 | Cn1cc(Cn2nc(-c3ccccc3)c3ccccc32)nn1 [Inz-35] | > 64 µM | > 64 µM
17 | c1ccc(-c2nn(Cc3ncccn3)c3ccccc23)cc1 [Inz-36] | > 64 µM | > 64 µM
18 | Cn1nc(-c2cccc(OCc3ccccc3)c2)c2ccccc21 [Inz-44] | > 64 µM | > 64 µM
19 | c1ccc(COc2cccc(-c3n[nH]c4ccccc34)c2)cc1 [Inz-46] | > 64 µM | > 64 µM
20 | O=C(O)Cn1nc(-c2cccc(OCc3ccccc3)c2)c2ccccc21 [Inz-47] | > 64 µM | > 64 µM
21 | COC(=O)Cn1ccc(-c2cccc(OCc3ccccc3)c2)n1 [Inz-48] | > 64 µM | > 64 µM
22 | COC(=O)Cn1ncc2ccccc21 [Inz-49] | > 64 µM | > 64 µM
23 | COC(=O)Cn1nc(-c2ccccc2OCc2ccccc2)c2ccccc21 [Inz-55] | > 64 µM | > 64 µM
24 | COC(=O)Cn1c(C)c(-c2cccc(OCc3ccccc3)c2)c2ccccc21 [Inz-56] | > 64 µM | > 64 µM
25 | COC(=O)Cn1nc(-c2c(C)cccc2C)c2ccccc21 [Inz-58] | > 64 µM | > 64 µM

Results, then the molecule that gave them:

Row | IC50 (Cytochrome b [1]) | IC50 (Cytochrome b [2]) | Structure (SMILES)
26 | 3.79 µM | 1.88 µM | O=C1C(=O)c2ccccc2C(O)=C1C1CCC(c2ccc(Cl)cc2)CC1 (stereo not given) [3-[4-(4-chlorophenyl)cyclohexyl]-4-hydroxynaphthalene-1,2-dione]
27 | 0.145 µM | 4.62 µM | COC(=O)Cn1nc(-c2cc(C(F)(F)F)ccc2F)c2ccccc21 [Inz-2]
28 | 1.01 µM | 21.3 µM | COC(=O)Cn1nc(-c2ccccc2)c2cccc(C)c21 [Inz-3]
29 | 0.289 µM | 6.51 µM | Cc1cccc2c(-c3cc(C(F)(F)F)ccc3F)nn(Cc3nnn(C)n3)c12 [Inz-5]
30 | 1.52 µM | 28.4 µM | COC(=O)Cn1nc(-c2cccc(OC)c2)c2ccccc21 [Inz-6]
31 | 0.714 µM | 9.97 µM | COC(=O)Cn1nc(-c2cccc(Oc3ccccc3)c2)c2ccccc21 [Inz-7]
32 | 0.346 µM | 13.9 µM | COC(=O)Cn1nc(-c2cccc(OCCc3ccccc3)c2)c2ccccc21 [Inz-8]
33 | 0.087 µM | 0.889 µM | COC(=O)Cn1nc(-c2cccc(OCC3CCCCC3)c2)c2ccccc21 [Inz-9]
34 | 1.06 µM | 8.65 µM | COC(=O)Cn1nc(-c2cccc(C(F)(F)F)c2)c2ccccc21 [Inz-10]
35 | 10.1 µM | > 64 µM | COC(=O)Cn1nc(-c2cccc(C#N)c2)c2ccccc21 [Inz-11]
36 | 6.07 µM | > 64 µM | COC(=O)Cn1nc(-c2cccc([N+](=O)[O-])c2)c2ccccc21 [Inz-12]
37 | 9.23 µM | > 64 µM | COC(=O)Cn1nc(-c2ccsc2)c2ccccc21 [Inz-13]
38 | 62.4 µM | > 64 µM | COC(=O)Cn1nc(-c2ccccn2)c2ccccc21 [Inz-15]
39 | 22.9 µM | > 64 µM | COC(=O)Cn1nc(-c2ccccc2OC)c2ccccc21 [Inz-16]
40 | 3.37 µM | > 64 µM | COC(=O)Cn1nc(-c2ccccc2C)c2ccccc21 [Inz-17]
41 | 5.41 µM | > 64 µM | COC(=O)Cn1nc(-c2ccccc2Cl)c2ccccc21 [Inz-18]
42 | 2.97 µM | 36 µM | COC(=O)Cn1nc(-c2ccccc2F)c2ccccc21 [Inz-19]
43 | 46.8 µM | > 64 µM | COC(=O)Cn1nc(-c2cc(C(F)(F)F)ccc2F)c2c(C(F)(F)F)cccc21 [Inz-22]

Row | IC50 (Cytochrome b [1]) | IC50 (Cytochrome b [2]) | Structure (SMILES)
44 | 10.8 µM | > 64 µM | COC(=O)Cn1nc(-c2cc(C(F)(F)F)ccc2F)c2c(C)cccc21 [Inz-23]
45 | 22.6 µM | > 64 µM | Cn1nnc(Cn2nc(-c3ccccc3)c3ccccc32)n1 [Inz-34]
46 | 5.42 µM | > 64 µM | c1ccc(-c2nn(Cc3cnccn3)c3ccccc23)cc1 [Inz-37]
47 | 0.602 µM | > 64 µM | Cc1cccc2c(-c3cc(C(F)(F)F)ccc3F)nn(Cc3cnccn3)c12 [Inz-38]
48 | 0.141 µM | 10.8 µM | Fc1ccc(C(F)(F)F)cc1-c1nn(Cc2cnccn2)c2c(F)cccc12 [Inz-39]
49 | 0.981 µM | 28.1 µM | CCOc1cccc(-c2nn(CC(=O)OC)c3ccccc23)c1 [Inz-40]
50 | 44.1 µM | > 64 µM | COC(=O)Cn1nc(-c2cccc(O)c2)c2ccccc21 [Inz-41]
51 | 7.24 µM | > 64 µM | COC(=O)Cn1nc(-c2cccc(OCc3ccccc3)c2)c2ccccc21 [Inz-42]
52 | 22.8 µM | > 64 µM | CCC(=O)Cn1nc(-c2cccc(OCc3ccccc3)c2)c2ccccc21 [Inz-43]
53 | 0.0663 µM | 1.17 µM | COC(=O)Cn1nc(-c2cccc(CCc3ccccc3)c2)c2ccccc21 [Inz-45]
54 | 13.1 µM | > 64 µM | COC(=O)Cn1cc(-c2cccc(OCc3ccccc3)c2)c2ccccc21 [Inz-50]
55 | 50.5 µM | > 64 µM | COC(=O)Cn1nc(-c2ccccc2C(F)(F)F)c2ccccc21 [Inz-51]
56 | 3.57 µM | > 64 µM | COC(=O)Cn1nc(-c2ccccc2O)c2ccccc21 [Inz-52]
57 | 43.4 µM | > 64 µM | COC(=O)Cn1nc(-c2ccc(CCc3ccccc3)cc2)c2ccccc21 [Inz-53]
58 | 0.344 µM | 9.23 µM | COC(=O)Cn1nc(-c2cccc(OCC(C)C)c2)c2ccccc21 [Inz-54]
59 | 0.156 µM | 4.77 µM | COC(=O)Cn1nc(-c2cccc(OCCC(C)C)c2)c2ccccc21 [Inz-57]
60 | 2.36 µM | > 64 µM | COC(=O)Cn1nc(-c2c(F)cccc2F)c2ccccc21 [Inz-59]
